US6737383B1, “Herbicidal oxadiazolidines” (priority 1999, dated 2004)

Key:
[1] = system: bamyardgrass; assay: Test B flood test barnyardgrass; format: in vivo, Echinochloa crus-galli
Protocol: (§1) At the same time, these crop and weed species were also treated with postemergence applications of test chemicals formulated in the same manner. Plants ranged in height from 2 to 18 cm (1- to 4-leaf stage) for postemergence treatments. Plant species in the flood test consisted of rice (Oryza sativa), smallflower flatsedge (Cyperus difformis), duck salad (Heteranthera limosa) and bamyardgrass (Echinochloa crus-galli) grown to the 2-leaf stage for testing. Treated plants and controls were maintained in a greenhouse for twelve to sixteen days, after which all species were compared to controls and visually evaluated. Plant response ratings, summarized in Table B, are based on a scale of 0 to 10 where 0 is no effect and 10 is complete control. A dash (−) response means no test result.

[2] = system: smallflower flatsedge; assay: Test B flood test smallflower flatsedge; format: in vivo, Cyperus difformis
In short: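 Each value is a visual injury score relative to controls, with 10 meaning complete control and 0 no effect. Evaluation took place twelve to sixteen days after the 2-leaf-stage plants were treated and kept in the greenhouse.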

[3] = system: duck salad; assay: Test B flood test duck salad; format: in vivo, Heteranthera limosa
Protocol: as §1

[4] = system: giant foxtail; assay: Test B pre/postemergence giant foxtail; format: in vivo, Setaria faberii
In short: (§2)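 Test chemicals in a non-phytotoxic solvent mixture with surfactant were sprayed preemergence onto planted seeds and postemergence onto plants 2 to 18 cm tall (1- to 4-leaf stage). After twelve to sixteen days in a greenhouse, injury was visually rated against untreated controls from 0 (no effect) to 10 (complete control).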

[5] = system: velvetleaf; assay: Test B pre/postemergence velvetleaf; format: in vivo, Abutilon theophrasti
In short: as §2

[6] = system: rape; assay: Test B pre/postemergence rape; format: in vivo, Brassica napus
In short: as §2

[7] = system: morningglory; assay: Test B pre/postemergence morningglory; format: in vivo, Ipomoea hederacea
In short: as §2

[8] = system: pigweed; assay: Test B pre/postemergence pigweed; format: in vivo, Amaranthus retroflexus
In short: as §2

[9] = system: wheat; assay: Test B pre/postemergence wheat; format: in vivo, Triticum aestivum
In short: as §2

[10] = system: bedstraw; assay: Test B pre/postemergence bedstraw; format: in vivo, Galium aparine
In short: as §2

[11] = system: wild oat; assay: Test B pre/postemergence wild oat; format: in vivo, Avena fatua
In short: as §2

[12] = system: purple nutsedge; assay: Test B pre/postemergence purple nutsedge; format: in vivo, Cyperus rotundus
In short: as §2

[13] = system: cocklebur; assay: Test B pre/postemergence cocklebur; format: in vivo, Xanthium strumarium
In short: as §2

[14] = system: blackgrass; assay: Test B pre/postemergence blackgrass; format: in vivo, Alopecurus myosuroides
In short: as §2

[15] = system: surinam grass; assay: Test B pre/postemergence surinam grass; format: in vivo, Brachiaria decumbens; conditions: Postemergence
In short: as §2

[16] = system: sugar beet; assay: Test B pre/postemergence sugar beet; format: in vivo, Beta vulgaris
In short: as §2

[17] = system: soybean; assay: Test B pre/postemergence soybean; format: in vivo, Glycine max
In short: as §2

[18] = system: crabgrass; assay: Test B pre/postemergence crabgrass; format: in vivo, Digitaria sanguinalis
In short: as §2

[19] = system: corn; assay: Test B pre/postemergence corn; format: in vivo, Zea mays
In short: as §2

[20] = Rate 62 g/ha, flood test species, Pre-emergence, visual evaluation after twelve to sixteen days
[21] = Rate 125 g/ha, under heading Pre-emergence, flood test species, visual evaluation after twelve to sixteen days
[22] = Rate 250 g/ha, Pre-emergence (flood test species), scale 0 to 10, 0 is no effect, 10 is complete control
[23] = Rate 500 g/ha, Pre-emergence section of Table B, 0 to 10 scale (0 no effect, 10 complete control)
[24] = Postemergence, Rate 31 g/ha, visual rating, scale 0 to 10 (0 no effect, 10 complete control)
[25] = Postemergence, Rate 62 g/ha, scale 0 to 10, 0 is no effect, 10 is complete control
[26] = Postemergence, Rate 125 g/ha, scale of 0 to 10 where 0 is no effect and 10 is complete control
[27] = Preemergence, Rate 31 g/ha, visual rating, scale 0 to 10 (0 no effect, 10 complete control)
[28] = Preemergence, Rate 250 g/ha, scale 0 (no effect) to 10 (complete control)
[29] = Rate 62 g/ha, Preemergence, scale 0 to 10
[30] = Rate 125 g/ha, Preemergence, scale 0 to 10 (0 no effect, 10 complete control)
[31] = Rate 250 g/ha, Postemergence, scale 0 to 10, 0 is no effect, 10 is complete control

CC(C)N(C(=O)n1oc(=O)n(CCc2ccccc2)c1=O)c1ccc(Cl)cc1 [Compound 538]
Plant response rating, Barnyardgrass (0 to 10 scale, 0 is no effect, 10 is complete control) [1, 20]: 0
Barnyardgrass plant response rating (0 to 10 scale, 0 is no effect, 10 is complete control) [1, 21]: 0
Barnyardgrass plant response rating [1, 22]: 0
Barnyardgrass plant response rating [1, 23]: 0
Plant response rating, S. Flatsedge (0 to 10 scale, 0 is no effect, 10 is complete control) [2, 20]: 0
S. Flatsedge plant response rating (0 to 10 scale, 0 is no effect, 10 is complete control) [2, 21]: 0
S. Flatsedge plant response rating [2, 22]: 0
S. Flatsedge plant response rating [2, 23]: 0
Plant response rating, Ducksalad (0 to 10 scale, 0 is no effect, 10 is complete control) [3, 20]: 0
Ducksalad plant response rating (0 to 10 scale, 0 is no effect, 10 is complete control) [3, 21]: 0
Ducksalad plant response rating [3, 22]: 0
Ducksalad plant response rating [3, 23]: 0

CCOP(=O)(OCC)C(C)n1c(=O)on(C(=O)N(c2ccc(F)cc2F)C(C)C)c1=O (stereo not drawn) [Compound 776]
Giant foxtail plant response rating [4, 24]: 2
Plant response rating, Giant foxtail [4, 25]: 2
Giant foxtail plant response rating [4, 26]: 2
Giant foxtail plant response rating [4, 27]: 5
Giant foxtail plant response rating [4, 28]: 9
Giant foxtail plant response rating [4, 29]: 9
Giant foxtail plant response rating [4, 30]: 9
Giant foxtail plant response rating [4, 31]: 2
Velvetleaf plant response rating [5, 24]: 2
Plant response rating, Velvetleaf [5, 25]: 3
Velvetleaf plant response rating [5, 29]: 0
Velvetleaf plant response rating [5, 30]: 0
Velvetleaf plant response rating [5, 31]: 3
Rape plant response rating [6, 24]: 0
Plant response rating, Rape [6, 25]: 2
Rape plant response rating [6, 26]: 2
Rape plant response rating [6, 29]: 0
Rape plant response rating [6, 30]: 0
Rape plant response rating [6, 31]: 2
Morningglory plant response rating [7, 24]: 4
Plant response rating, Morningglory [7, 25]: 7
Morningglory plant response rating [7, 26]: 7
Morningglory plant response rating [7, 29]: 0
Morningglory plant response rating [7, 30]: 2
Redroot pigweed plant response rating [8, 24]: 0
Plant response rating, Redroot pigweed [8, 25]: 2
Redroot pigweed plant response rating [8, 26]: 2
Redroot pigweed plant response rating [8, 29]: 0
Redroot pigweed plant response rating [8, 30]: 0
Redroot pigweed plant response rating [8, 31]: 2
Wheat plant response rating [9, 24]: 0
Plant response rating, Wheat [9, 25]: 0
Wheat plant response rating [9, 29]: 0
Wheat plant response rating [9, 30]: 2
Wheat plant response rating [9, 31]: 0
Bedstraw plant response rating [10, 24]: 0
Plant response rating, Bedstraw [10, 25]: 0
Bedstraw plant response rating [10, 26]: 3
Bedstraw plant response rating [10, 27]: 0
Bedstraw plant response rating [10, 28]: 0
Bedstraw plant response rating [10, 29]: 0
Bedstraw plant response rating [10, 30]: 0
Bedstraw plant response rating [10, 31]: 3
Wild oats plant response rating [11, 24]: 0
Plant response rating, Wild oats [11, 25]: 0
Wild oats plant response rating [11, 29]: 2
Wild oats plant response rating [11, 30]: 2
Wild oats plant response rating [11, 31]: 0
Nutsedge plant response rating [12, 24]: 0
Plant response rating, Nutsedge [12, 25]: 0
Nutsedge plant response rating [12, 26]: 0
Nutsedge plant response rating [12, 29]: 0
Nutsedge plant response rating [12, 31]: 0
Cocklebur plant response rating [13, 24]: 0
Plant response rating, Cocklebur [13, 25]: 0
Cocklebur plant response rating [13, 26]: 0
Cocklebur plant response rating [13, 27]: 0
Cocklebur plant response rating [13, 31]: 0
Blackgrass plant response rating [14, 24]: 2
Plant response rating, Blackgrass [14, 25]: 2
Blackgrass plant response rating [14, 26]: 2
Blackgrass plant response rating [14, 27]: 0
Blackgrass plant response rating [14, 28]: 2
Blackgrass plant response rating [14, 29]: 0
Blackgrass plant response rating [14, 30]: 0
Blackgrass plant response rating [14, 31]: 2
B. signalgrass plant response rating ([15]; Rate 31 g/ha, visual rating, scale 0 to 10 (0 no effect, 10 complete control)): 0
Plant response rating, B. signalgrass ([15]; Rate 62 g/ha, scale 0 to 10, 0 is no effect, 10 is complete control): 0
B. signalgrass plant response rating ([15]; Rate 125 g/ha, scale of 0 to 10 where 0 is no effect and 10 is complete control): 0
B. signalgrass plant response rating ([15]; Rate 250 g/ha, scale 0 to 10, 0 is no effect, 10 is complete control): 0
Sugarbeets plant response rating [16, 24]: 0
Plant response rating, Sugarbeets [16, 25]: 0
Sugarbeets plant response rating [16, 29]: 0
Sugarbeets plant response rating [16, 30]: 0
Sugarbeets plant response rating [16, 31]: 3
Soybean plant response rating [17, 24]: 1
Plant response rating, Soybean [17, 25]: 2
Soybean plant response rating [17, 29]: 0
Soybean plant response rating [17, 30]: 0
Soybean plant response rating [17, 31]: 2
Crabgrass plant response rating [18, 24]: 2
Plant response rating, Crabgrass [18, 25]: 2
Crabgrass plant response rating [18, 26]: 2
Crabgrass plant response rating [18, 27]: 5
Crabgrass plant response rating [18, 28]: 9
Crabgrass plant response rating [18, 29]: 5
Crabgrass plant response rating [18, 30]: 8
Crabgrass plant response rating [18, 31]: 2
Corn plant response rating [19, 24]: 0
Plant response rating, Corn [19, 25]: 0
Corn plant response rating [19, 26]: 0
Corn plant response rating [19, 27]: 0
Corn plant response rating [19, 28]: 1
Corn plant response rating [19, 29]: 0
Corn plant response rating [19, 30]: 0
Corn plant response rating [19, 31]: 0
